Assay results from patent US20160158179A1, “NANOEMULSION THERAPEUTIC COMPOSITIONS AND METHODS OF USING THE SAME” (THE REGENTS OF THE UNIVERSITY OF MICHIGAN, priority 2008, published 2016).
In brackets after ≈: the same amount, converted by molar mass.

How the values were obtained:
[1] = system: H. influenzae clinical isolates; assay: MIC and MBC susceptibility assays (CLSI); assay type: cell-based, Haemophilus influenzae; conditions: Haemophilus influenzae; all H. influenzae strains of Table 6; control antibiotics
[2] = system: methicillin-resistant Staphylococcus aureus (MRSA) clinical isolates; assay: MIC and MBC susceptibility assays (CLSI); assay type: cell-based; conditions: for MIC50 (15): value at rank 15 of 29; for MIC 90: clinical isolates of MRSA; for MIC50(26): value at rank 26 of 29
[3] = system: Stenotrophomonas maltophilia; assay: MIC and MBC determination (CLSI, alamar blue), CF isolates; conditions: Stenotrophomonas
[4] = system: Pseudomonas, Burkholderia, Acinetobacter and Stenotrophomonas; assay: MIC and MBC determination (CLSI, alamar blue), all strains of Example 8
Stenotrophomonas strains = assay: Checkerboard synergy study (FIC/FBC index); assay type: cell-based, Stenotrophomonas maltophilia; conditions: in combination with P4075EC+EDTA
Acinetobacter strains = assay: Checkerboard synergy study (FIC/FBC index); assay type: cell-based, Acinetobacter baumannii; conditions: in combination with P4075EC+EDTA
Burkholderia strains = assay: Checkerboard synergy study (FIC/FBC index); assay type: cell-based, Burkholderia cenocepacia; conditions: in combination with P4075EC+EDTA
[5] = MBC analysis table, silver nitrate column
[6] = share of 10 Stenotrophomonas strains with synergy
[7] = share of 10 Acinetobacter strains with synergy
[8] = share of 10 Burkholderia strains with synergy

## CN(C)[C@@H]1C(O)=C(C(N)=O)C(=O)[C@@]2(O)C(O)=C3C(=O)c4c(O)cccc4[C@@](C)(O)[C@H]3C[C@@H]12 [Tetracycline]
[1]
  MIC 50: 2 mg/L (≈ 4.5 µM)

## C[C@H]1COc2c(N3CCN(C)CC3)c(F)cc3c(=O)c(C(=O)O)cn1c23 [Levo]
[2]; MRSA clinical isolates
  MIC50 (15): 8 mg/L (≈ 22.1 µM)

## C[C@@H](O)[C@H]1C(=O)N2C(C(=O)O)=C(SCCN=CN)C[C@H]12 [Imipenem]
[3]
  MIC 50: >32 mg/L
[4]
  MIC 90: ≥ 2 mg/L

## C[C@H]1c2cccc(O)c2C(O)=C2C(=O)[C@]3(O)C(O)=C(C(N)=O)C(=O)[C@@H](N(C)C)[C@@H]3[C@@H](O)[C@@H]21 [Dox]
[2]; MRSA clinical isolates
  MIC50 (15): 0.25 mg/L (≈ 0.563 µM)

## C[C@H]1c2cccc(O)c2C(O)=C2C(=O)[C@]3(O)C(O)=C(C(N)=O)C(=O)[C@@H](N(C)C)[C@@H]3[C@@H](O)[C@@H]21 [doxycyline, doxycycline]
[2]
  MIC 90: 4 µg/mL (≈ 9 µM)

## CCC[C@@H]1C[C@@H](C(=O)N[C@@H]([C@H]2O[C@H](SC)[C@H](O)[C@@H](O)[C@H]2O)[C@H](C)Cl)N(C)C1 [clind]
[2]; MRSA clinical isolates
  MIC50 (15): >64 mg/L

## O=[N+]([O-])[O-].[Ag+] [silver nitrate]
[2]; [5]
  MIC50 (15): 0.0025 mg/L
  MIC50(26): >0.01 mg/L
[2]
  MIC 90: 0.00063%
[2]; silver nitrate column
  MIC50 (15): 0.00031 mg/L
  MIC50(26): 0.00063 mg/L

## NC[C@H]1O[C@H](O[C@H]2[C@H](O)[C@@H](O[C@H]3O[C@H](CO)[C@@H](O)[C@H](N)[C@H]3O)[C@H](N)C[C@@H]2N)[C@H](N)C[C@@H]1O [Tobra]
Stenotrophomonas strains; isolate NB42
  FIC: 0.14
  Synergy (FBC): indifferent
  Synergy (FIC): yes
Stenotrophomonas strains; isolate NB43
  FIC: 1.40
  Synergy (FBC): indifferent
  Synergy (FIC): indifferent
Stenotrophomonas strains; isolate NB44
  FIC: 1.5
  Synergy (FBC): indifferent
  Synergy (FIC): indifferent
Stenotrophomonas strains; isolate NB45
  FBC: 1.50
  FIC: 0.97
  Synergy (FBC): indifferent
  Synergy (FIC): indifferent
Stenotrophomonas strains; [6]
  % FBC Synergy: 0%
  % FIC Synergy: 20%
Acinetobacter strains; isolate NB31
  FBC: 1.50
  FIC: 0.98
  Synergy (FBC): no
  Synergy (FIC): indifferent
Acinetobacter strains; isolate NB32
  FBC: 1.79
  FIC: 0.88
  Synergy (FBC): no
  Synergy (FIC): indifferent
Acinetobacter strains; isolate NB33
  FBC: 1.75
  FIC: 1.27
  Synergy (FBC): no
  Synergy (FIC): indifferent
Acinetobacter strains; isolate NB34
  FBC: 0.24
  FIC: 0.41
  Synergy (FBC): yes
  Synergy (FIC): yes
Acinetobacter strains; isolate NB35
  FBC: 1.44
  FIC: 1.21
  Synergy (FBC): no
  Synergy (FIC): indifferent
Acinetobacter strains; isolate NB36
  FIC: 3.30
  Synergy (FBC): no
  Synergy (FIC): indifferent
Acinetobacter strains; isolate NB37
  FBC: 1.72
  FIC: 0.75
  Synergy (FBC): no
  Synergy (FIC): indifferent
Acinetobacter strains; isolate NB38
  FIC: 1.05
  Synergy (FBC): no
  Synergy (FIC): indifferent
Acinetobacter strains; isolate NB39
  FBC: 3.52
  FIC: 3.30
  Synergy (FBC): no
  Synergy (FIC): indifferent
Acinetobacter strains; isolate NB40
  FBC: 3.01
  FIC: 3.01
  Synergy (FBC): no
  Synergy (FIC): indifferent
Acinetobacter strains; [7]
  % FBC Synergy: 10%
  % FIC Synergy: 10%
Burkholderia strains; isolate NB21
  FBC: 0.48
  FIC: 0.27
  Synergy (FBC): yes
  Synergy (FIC): yes
Burkholderia strains; isolate NB22
  FIC: 0.35
  Synergy (FBC): indifferent
  Synergy (FIC): yes
Burkholderia strains; isolate NB23
  Synergy (FBC): indifferent
  Synergy (FIC): indifferent
Burkholderia strains; isolate NB24
  Synergy (FBC): indifferent
  Synergy (FIC): indifferent
Burkholderia strains; isolate NB25
  FBC: 0.99
  Synergy (FBC): indifferent
  Synergy (FIC): indifferent
Burkholderia strains; isolate NB26
  FBC: 0.92
  FIC: 0.12
  Synergy (FBC): indifferent
  Synergy (FIC): yes
Burkholderia strains; isolate NB27
  Synergy (FBC): indifferent
  Synergy (FIC): indifferent
Burkholderia strains; isolate NB28b
  FIC: 0.54
  Synergy (FBC): indifferent
  Synergy (FIC): yes
Burkholderia strains; isolate NB29
  FBC: 0.07
  FIC: 0.32
  Synergy (FBC): yes
  Synergy (FIC): yes
Burkholderia strains; isolate NB30
  FBC: 0.54
  FIC: 0.27
  Synergy (FBC): yes
  Synergy (FIC): yes
Burkholderia strains; [8]
  % FBC Synergy: 30%
  % FIC Synergy: 50%

## CN[C@H](CC(C)C)C(=O)N[C@H]1C(=O)N[C@@H](CC(N)=O)C(=O)N[C@H]2C(=O)N[C@H]3C(=O)N[C@H](C(=O)N[C@H](C(=O)O)c4cc(O)cc(O)c4-c4cc3ccc4O)[C@H](O)c3ccc(c(Cl)c3)Oc3cc2cc(c3O[C@@H]2O[C@H](CO)[C@@H](O)[C@H](O)[C@H]2O[C@H]2C[C@](C)(N)[C@H](O)[C@H](C)O2)Oc2ccc(cc2Cl)[C@H]1O [Vanco]
[2]; MRSA clinical isolates
  MIC50 (15): 1 mg/L (≈ 0.69 µM)
